From patent US11925667B2, “Engineered therapeutic probiotic system and method” (priority 2018, dated 2024)

Experiments:
[1] = test system: SMC (esophageal smooth muscle primary cells); test: Growth inhibition assay (MTT), SMC; assay type: cell-based, human; conditions: purified YebF-I1 fusion protein and sinigrin, in words
Excerpt: (§1) Cell culture and toxicity assay. While HCT116 human colorectal carcinoma cells (ATCC, Manassas, USA), LoVo human colorectal adenocarcinoma cells (ATCC), AGS human gastric adenocarcinoma cells (ATCC), MCF7 human breast adenocarcinoma cells (ATCC), human esophageal smooth muscle primary cells (SMCs) (Cell Biologics, Chicago, USA) and CT26 mouse colorectal carcinoma cells (ATCC) are used according to the claimed invention, other illustrative cell lines may similarly be utilized. Cells are cleared of mycoplasma contamination prior to use using Mycoalert™ PLUS mycoplasma detection kit (Lonza). HCT116 cells are cultured in McCoy's 5A medium, LoVo and AGS cells in Ham's F12 medium, MCF7 cells in DMEM medium, CT26 cells in RPMI medium, and SMCs in the specific medium kit purchased from Cell Biologics. […]
(§2) Cellular viability is measured at 3 hours, 24 hours and 72 hours post-treatment using the MTT assay (Sigma, St. Louis, USA). […] The MTT readout is fitted to a dose-response curve to determine the GI50 value (Eq. 2). Absorbance (570 nm)=Bottom+(Top−Bottom)/(1+10^(([Inhibitor]−Log 10 GI50))) (Eq. 2) HlpA binding assay. […] The cancer 394 cells are washed twice with 1×PBS and measured for DAPI and RFP emission. The fluorescence emission is compared on the linear standard curve of stained cells against the average fluorescence emission to determine the binding ratio of E. coli to cancer cells. […]

[2] = test system: AGS gastric adenocarcinoma cells; test: Growth inhibition assay (MTT), AGS; assay type: cell-based, human
Excerpt: as §1, §2

[3] = test system: LoVo colorectal adenocarcinoma cells; test: Growth inhibition assay (MTT), LoVo; assay type: cell-based, human
Excerpt: as §1, §2

[4] = test system: CT26 colorectal carcinoma cells; test: Growth inhibition assay (MTT), CT26; assay type: cell-based, mouse
Excerpt: as §1, §2

[5] = test system: HCT116 colorectal carcinoma cells; test: Growth inhibition assay (MTT), HCT116; assay type: cell-based, human
Excerpt: as §1, §2

[6] = test system: MCF7 breast adenocarcinoma cells; test: Growth inhibition assay (MTT), MCF7; assay type: cell-based, human
Excerpt: as §1, §2

[7] = biological target: LoVo; test: HlpA binding assay (GFP/DAPI ratio), LoVo; conditions: LoVo human colorectal cell line
Protocol: (§3) Cellular viability is measured at 3 hours, 24 hours and 72 hours post-treatment using the MTT assay (Sigma, St. Louis, USA). The inhibitory activity of myrosinase-converted AITC is performed by incubating cancer cells grown to 60% confluency with 0.1 μM of purified secreted I1 myrosinase with 0˜10 mM sinigrin at 37° C. and 5% CO2 and was sampled at 3 hours, 24 hours and 72 hours post-treatment. The MTT readout is fitted to a dose-response curve to determine the GI50 value (Eq. 2). Absorbance (570 nm)=Bottom+(Top−Bottom)/(1+10^(([Inhibitor]−Log 10 GI50))) (Eq. 2) HlpA binding assay. The HlpA gene sequence is optimized for E. coli expression, and the gene is cloned into a pET28b vector with an N-terminal GFP. GFP-HlpA and GFP are expressed using similar purification protocols, described above. […] Treated and adherent cells are washed with sterile PBS twice before staining with DAPI. The GFP/DAPI ratio is used to evaluate the binding ratio of protein binding per cell (Eq. 3). […] The cancer 394 cells are washed twice with 1×PBS and measured for DAPI and RFP emission. The fluorescence emission is compared on the linear standard curve of stained cells against the average fluorescence emission to determine the binding ratio of E. coli to cancer cells.

[8] = biological target: HCT116; test: HlpA binding assay (GFP/DAPI ratio), HCT116; conditions: HCT116 human colorectal cell line
Protocol: as §3

[9] = biological target: CT26; test: HlpA binding assay (GFP/DAPI ratio), CT26; conditions: CT26 murine colorectal cell line
Protocol: as §3

[10] = test system: smooth muscle cells; test: HlpA binding assay (GFP/DAPI ratio), smooth muscle cells; design: species or system human
Protocol: as §3

[11] = test system: gastric (AGS) cancer cell line; test: HlpA binding assay (GFP/DAPI ratio), AGS; design: species or system human
Protocol: as §3

[12] = test system: breast (MCF7) cancer cell line; test: HlpA binding assay (GFP/DAPI ratio), MCF7; design: species or system human
Protocol: as §3

[13] = 0.1 μM purified secreted I1 myrosinase with sinigrin
[14] = Homo sapiens, 0.1 μM purified secreted I1 myrosinase with 0~10 mM sinigrin, read-out: GI 50 value

For `C=CCN=C=S` [YebF-I1-converted AITC, allyl isothiocyanate], the “Inhibition of primary smooth muscle cell line” value [1] was “no inhibition”, the Complete inhibition [2, 13] was less than 24 h and the GI50 [2, 14] was 26 µM. It also gave a Complete inhibition [3, 13] of less than 21 h, a GI50 [3, 14] of 232 µM and a Complete inhibition [4, 13] of less than 24 h. For the same molecule, the GI50 ([4]; Mus musculus, 0.1 μM purified secreted I1 myrosinase with 0~10 mM sinigrin, read-out: GI 50 value) was 46 µM, the Complete inhibition [5, 13] was less than 24 h and the GI50 ([5]; Homo sapiens, HCT-116, 0.1 μM purified secreted I1 myrosinase with 0~10 mM sinigrin, read-out: GI 50 value) was 155 µM. For the same molecule, the Complete inhibition [6, 13] was less than 24 h and the GI50 [6, 14] was 139 µM.

With “GFP-HlpA: purified N-terminal GFP-tagged Histone-like protein A (HlpA) from Streptococcus gallolyticus” the binding affinity [7] was “sub-micromolar”, the binding affinity [8] was “sub-micromolar” and the binding affinity [9] was “sub-micromolar”. For the same molecule, the “weaker binding affinity relative to colorectal cell lines” value [10] was 6 fold, the binding [11] was “No binding” and the binding [12] was “No binding”.
